The results in this text go back to patent publication US20080207650A1, “Chemical Compounds 636” (priority 2007, published 2008).

In this assay the target is recombinant Human Phosphodiesterase B2 (PDE4B2) (Homo sapiens, UniProt Q07343). Briefly: Human Phosphodiesterase B2 Radiometric Assay. It is filed as biochemical. To be noted: SPA assay, 0.1 μg/mL recombinant PDE4B2, 8 nM [3H]cyclic AMP, preincubated 30 min at 30 C, reaction 20 minutes; read-out: PDE4B2 pIC50 (converted). The procedure: Human Phosphodiesterase B2 Radiometric Assay
recombinant Human Phosphodiesterase B2 (PDE4B2), sequence (Q07343 1-564 isoform Q07343-2): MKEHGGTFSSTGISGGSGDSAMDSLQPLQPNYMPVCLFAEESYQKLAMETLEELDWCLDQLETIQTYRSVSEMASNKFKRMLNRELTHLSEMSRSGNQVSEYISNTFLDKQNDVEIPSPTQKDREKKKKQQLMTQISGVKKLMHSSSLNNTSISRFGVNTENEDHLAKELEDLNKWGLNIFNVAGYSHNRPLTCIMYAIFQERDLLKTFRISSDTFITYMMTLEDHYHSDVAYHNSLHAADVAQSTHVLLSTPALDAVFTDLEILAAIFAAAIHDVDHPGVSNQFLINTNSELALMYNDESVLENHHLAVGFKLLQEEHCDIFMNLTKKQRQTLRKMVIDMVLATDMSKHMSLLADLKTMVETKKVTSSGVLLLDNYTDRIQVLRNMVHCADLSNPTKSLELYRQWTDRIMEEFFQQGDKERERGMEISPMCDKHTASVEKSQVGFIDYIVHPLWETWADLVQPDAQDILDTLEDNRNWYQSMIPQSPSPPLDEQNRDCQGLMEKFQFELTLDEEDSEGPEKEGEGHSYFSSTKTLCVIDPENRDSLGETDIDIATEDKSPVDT
The assay uses recombinant Human Phosphodiesterase B2 (PDE4B2) produced in house (PrAZL0163), stored at −20° C. This assay is based on the observation that 5′AMP, the product of the reaction catalysed by PDE4, binds preferentially to yttrium silicate SPA beads (Amersham Biosciences, UK) compared to the substrate, cAMP. Compounds at the appropriate concentration were preincubated at 30 C for 30 min with an assay buffer containing 50 mM HEPES (pH 7.5), 8.3 mM MgCl2, 1.7 mM EGTA, 0.01% (w/v) Brij® 35 and 0.1 μg/mL recombinant PDE4B2. The reaction was started by the addition of [3H]cyclic AMP to give a final concentration of 8 nM, and was stopped 20 minutes after the addition of the substrate by the addition of yttrium silicate SPA beads containing 18 mM Zn SO4. Bound [3H]cyclic AMP was measured using a Topcount NXT (Packard Bioscience, UK). IC50 values (presented in Table I) were determined using Xlfit3 curve fitting, using model 205.
As to `CN1CCN(Cc2ccc(C(=O)NC3CCC(n4c(=O)c5cc(F)cnc5n(C5CCSCC5)c4=O)CC3)cc2)CC1` (stereo not shown) [Example 6, N-[4-(9-fluoro-2,4-dioxo-5-tetrahydrothiopyran-4-yl-3,5,7-triazabicyclo[4.4.0]deca-6,8,10-trien-3-yl)cyclohexyl]-4-[(4-methylpiperazin-1-yl)methyl]benzamide], the IC50 is 3.16 nM.

Turning to `O=C(CN1CCN(Cc2ccccc2)CC1)NC1CCC(n2c(=O)c3cc(F)cnc3n(C3CCSCC3)c2=O)CC1` (stereo not shown) [Example 10, 2-(4-benzylpiperazin-1-yl)-N-[4-(9-fluoro-2,4-dioxo-5-tetrahydrothiopyran-4-yl-3,5,7-triazabicyclo[4.4.0]deca-6,8,10-trien-3-yl)cyclohexyl]acetamide], the IC50 was 0.0794 nM.

Turning to `O=C(CN1CCN(C(=O)Cc2ccccc2)CC1)NC1CCC(n2c(=O)c3cc(F)cnc3n(C3CCSCC3)c2=O)CC1` (stereo not shown) [Example 24, N-[4-(9-fluoro-2,4-dioxo-5-tetrahydrothiopyran-4-yl-3,5,7-triazabicyclo[4.4.0]deca-6,8,10-trien-3-yl)cyclohexyl]-2-[4-(2-phenylacetyl)piperazin-1-yl]acetamide], the IC50 was 2 nM.

Take `NCC1CCc2nc(C(=O)N[C@H]3CC[C@@H](n4c(=O)c5cc(F)cnc5n(C5CCSCC5)c4=O)CC3)cn2C1` (stereo partly drawn) [Example 3, 6-(aminomethyl)-N-{cis-4-[6-fluoro-2,4-dioxo-1-(tetrahydro-2H-thiopyran-4-yl)-1,4-dihydropyrido[2,3-d]pyrimidin-3(2H)-yl]cyclohexyl}-5,6,7,8-tetrahydroimidazo[1,2-a]pyridine-2-carboxamide]: the IC50 was 6.31 nM.
